Measured values published in PMC6017616, “Synthesis and Evaluation of the Antioxidant Activity of Lipophilic Phenethyl Trifluoroacetate Esters by In Vitro ABTS, DPPH and in Cell-Culture DCF Assays” (Molecules : A Journal of Synthetic Chemistry and Natural …, 2018).
Structures can show the parent of a compound that is named as a salt.

Key:
ABTS assay (TEAC) = details: for Trolox Equivalent Antioxidant Capacity (TEAC): ethanol, room temperature, 734 nm, 2 min, extrapolated at 10 μM, Trolox mM equivalent
Method: The antioxidant capacity of compounds 1–12 was measured according to the method of Pellegrini et al. but working at room temperature. 6-Hydroxy-2,5,7,8-tetramethylchroman-2-carboxylic acid (Trolox) was used as reference. The analyses were carried out in ethanol (0.2% of water) at room temperature and the absorbance was measured at λ = 734 nm. Each sample (1.0 mL) of ABTS^+• was obtained from the aqueous mother solution by dilution with ethanol to an absorbance of […], and 10 μL of the ethanol solution of the antioxidant was added. All compounds were analyzed at four different final concentrations ranging from 1 to 10 μM. The absorbance was measured after 2 min. Four measurements were recorded for each concentration. Each time blanks of pure solvent were run. The standard deviations of data were all below 5%. The dose-response curves were expressed as the percentage of absorbance decrease (ABTS inhibition expressed as percentage) against the amount of antioxidant concentration. Linear regression was conducted using GraphPad Prism 4.01 (2004) software. The antioxidant capacities were extrapolated at 10 μM concentration and reported as Trolox Equivalent Antioxidant Capacity (TEAC), defined as the concentration (mmol/L) of Trolox having the antioxidant capacity equivalent to that of a 1.0 mmol/L solution of the substance under investigation. Results are expressed as mean ± standard deviation. Statistical analyses were performed using the Student’s t test. The level of significance was p < 0.05 for all data.

[1] = test system: THP-1 human leukemic monocytes; assay: Intracellular ROS determination (DCF assay) in THP-1 monocytes; assay type: cell-based; details: 10 min, THP-1 cells, compound 10 µM, 200 µM cumene hydroperoxide, ΔF/10 min, read-out: Intracellular ROS, DCF fluorescence (Mean) relative to cumene hydroperoxide alone (100%)
Method: (§1) The fluorometric DCF assay is a useful technique to evaluate the antioxidant activity of compounds in cells exposed to oxidative stress induced by cumene hydroperoxide. The analyses were carried out in two different cell lines particularly sensitive to radical production: L6 myoblasts from rat skeletal muscle and THP-1 human leukemic monocytes.
(§2) The antioxidant activity of each compound was measured by a standard intracellular fluorescent probe (DCF) assay using L6 myoblasts and THP-1 monocytes exposed to oxidative stress by the addition of cumene hydroperoxide, a radical generator. Fluorescence was measured over a 10-min period, and the ability of the compounds to eliminate the increased ROS production was determined. For L6 myoblasts, growing attached to the bottom of the flask, the medium was discarded and cells were washed twice with 5 mL phosphate buffered saline (PBS) containing 5.0 mM glucose (PBS-glucose) at 37 °C. Cells were gently scraped off with PBS-glucose at 37 °C and centrifuged at 1200 rpm for 5 min (approximately 100× g). The supernatant was discarded and the pellet resuspended in PBS-glucose. Incubation with the probe DCFH2-DA at a final concentration of 10 µM (from a stock solution of 10 mM in DMSO) was carried out for 30 min at 37 °C in the dark. At the end of the incubation, cells were washed twice, centrifuged at 1200 rpm for 5 min, and the final cell pellet was resuspended in PBS-glucose. Before the experiment was initiated, cells were allowed to recover for 1 h at room temperature in the dark. The THP-1 monocytes, growing in suspension, were centrifuged at 1200 rpm for 10 min. The supernatant was discarded, and cells were washed twice with 5 mL PBS-glucose at 37 °C to remove the serum. The pellet was successively resuspended in PBS-glucose, and the probe DCFH2-DA was added at 10 µM final concentration. From that point onwards, the protocols for the two cell types were identical. Intracellular fluorescence was measured at 37 °C using a Perkin Elmer VICTOR 3V spectrofluorometer (excitation at λ = 498 nm and emission at λ = 530 nm). […] Cells were incubated with compounds at the final designated concentration for 10 min at 37 °C before addition of the radical generator. The decrease in the intracellular DCF fluorescence relative to the fluorescence change induced by 200 μM cumene hydroperoxide alone (100%), reported as ΔF/10 min, determined the antioxidant activities. Data are reported as the mean ± standard deviation of at least four different experiments carried out in triplicate. One-way ANOVA test (non-parametric) and Bonferroni post-test (comparing all pairs of columns) were used for the statistical analyses.

L6 myoblasts = assay: Intracellular ROS determination (DCF assay) in L6 myoblasts; assay type: cell-based, rat; details: for antioxidant activity in cells, DCF assay: L6 and THP-1 cells; for activity at 10 µM: Rattus norvegicus, L6, 10 min, L-6 cells, compound 10 µM, 200 µM cumene hydroperoxide, ΔF/10 min, read-out: Intracellular ROS, DCF fluorescence (Mean) relative to cumene hydroperoxide alone (100%)
Method: as §1, §2

[2] = Measurement of partition coefficient (logP) by UV-Vis spectrophotometry; assay type: physicochemical; details: 1-octanol / phosphate buffer 0.1 M pH 7.4; mean of triplicate determinations
Description: Lipophilicity is a relevant property to estimate the bioavailability and dispersion of a molecule in non-aqueous media (oils, fats, and emulsions) and in the cellular environment. Generally, it can be related to logP, a parameter that evaluates the partition of a molecule between two immiscible solvents (water and 1-octanol). […] As already reported in the literature, the lipophilic character increased from hydroxytyrosol 6 to homovanillyl alcohol 5 and tyrosol 4.
The logP value of all compounds was determined as reported in the literature by UV-Vis spectrophotometry. The partition coefficient (logP) was calculated according to the following relationship: logP = logAx/(A0 − Ax). A0 was the maximum of absorbance of a solution 0.15 mM of each compound dissolved in 1-octanol; Ax is the maximum of absorbance of the organic solution containing the compound after separation from the phosphate buffer (0.1 M, pH 7.4) solution. A solution of 1-octanol saturated with the buffer was used as a blank.

L6 cells = assay: Proliferation curves (cell counts) in L6 cells; assay type: cell-based, rat; details: 10 µM, absence or presence of cumene hydroperoxide 40 µM
Method: (§3) L6 cells were seeded in 60 × 15 mm Petri dishes in 4 mL of the complete growth medium at a density of approximately 10^5 cells/well. The following day, the cells were exposed to the selected compounds 1, 5–7, 11, and 12 at a final concentration of 10 µM in the absence and presence of cumene hydroperoxide (40 µM). Cell counts using a Neubauer chamber were made every 24 h up to confluence. Each time the L6 myoblasts had to be counted, they first underwent a mild trypsinization. THP-1 cells were seeded in 24-well plates in 1 mL of the growth medium. After 24 h, the cells were exposed to 10 µM of the same compounds in the absence and presence of cumene hydroperoxide (200 µM) and incubated for an additional 24 h. Cell counts using a Neubauer chamber were made every 24 h up to confluence. The results are given as the mean ± standard deviation of two different experiments.

THP-1 cells = assay: Proliferation curves (cell counts) in THP-1 cells; assay type: cell-based, human; details: 10 µM, absence or presence of cumene hydroperoxide 200 µM
Method: as §3

Row | Structure (SMILES) | antiradical activity / antioxidant capacity in ABTS assay (ABTS assay (TEAC)) | Trolox Equivalent Antioxidant Capacity (TEAC) (ABTS assay (TEAC)) | activity at 10 µM [1] | antioxidant activity in cells, DCF assay (L6 myoblasts) | activity at 10 µM (L6 myoblasts) | logP [2] | effect on cell proliferation (cell counts) (L6 cells) | effect on cell proliferation (cell counts) (THP-1 cells)
1 | OCCc1ccccc1 [Compound 1, phenethyl alcohol] | very low antiradical activity | 0.00 mM | 33% | good antioxidant activity | 31% | – | – | –
2 | OCCc1ccccc1O [Compound 2, 2-hydroxyphenethyl alcohol] | good antioxidant capacity | 0.69 mM | 25% | – | 23% | 0.72 ± 0.07 | – | –
3 | OCCc1cccc(O)c1 [Compound 3, 3-hydroxyphenethyl alcohol] | – | 0.43 mM | 23% | – | 25% | 0.66 ± 0.06 | – | –
4 | OCCc1ccc(O)cc1 [Compound 4, 4-hydroxyphenethyl alcohol] | – | 0.45 mM | 25% | – | 41% | 0.69 ± 0.05 | – | –
5 | COc1cc(CCO)ccc1O [Compound 5, 4-hydroxy-3-methoxyphenethyl alcohol] | good antioxidant capacity | 0.81 mM | 21% | – | 22% | 0.46 ± 0.02 | promoted L6 myoblast proliferation | inhibited THP-1 tumor cell growth
6 | OCCc1ccc(O)c(O)c1 [Compound 6, 3,4-dihydroxyphenethyl alcohol] | good antioxidant capacity | 0.68 mM | 14% | – | 7% | 0.1 ± 0.01 | – | –
7 | O=C(OCCc1ccccc1)C(F)(F)F [Compound 7, Phenethyl trifluoroacetate] | very low antiradical activity | 0.00 mM | 30% | good antioxidant activity | 29% | 2.38 ± 0.18 | – | –
8 | O=C(OCCc1ccccc1O)C(F)(F)F [Compound 8, 2-Hydroxyphenethyl trifluoroacetate] | good antioxidant capacity | 0.75 mM | 25% | – | 26% | 2.05 ± 0.16 | – | –
9 | O=C(OCCc1cccc(O)c1)C(F)(F)F [Compound 9, 3-Hydroxyphenethyl trifluoroacetate] | – | 0.38 mM | 28% | – | 25% | 1.96 ± 0.14 | – | –
10 | O=C(OCCc1ccc(O)cc1)C(F)(F)F [Compound 10, 4-Hydroxyphenethyl trifluoroacetate] | – | 0.36 mM | 20% | – | 21% | 1.98 ± 0.14 | – | –
11 | COc1cc(CCOC(=O)C(F)(F)F)ccc1O [Compound 11, 4-Hydroxy-3-methoxyphenethyl trifluoroacetate] | good antioxidant capacity | 0.87 mM | 23% | – | 20% | 1.9 ± 0.12 | – | –
12 | O=C(OCCc1ccc(O)c(O)c1)C(F)(F)F [Compound 12, 3,4-Dihydroxyphenethyl trifluoroacetate] | good antioxidant capacity | 0.77 mM | 16% | – | 4% | 1.62 ± 0.12 | – | –
13 | Cc1c(C)c2c(c(C)c1O)CCC(C)(C(=O)O)O2 (stereo not drawn) [Trolox, 6-Hydroxy-2,5,7,8-tetramethylchroman-2-carboxylic acid] | – | 1.00 mM | – | – | – | – | – | –
